Assay results published in US7674807B2, “Heterocycle-substituted n-phenyl-phthalamide derivatives, related compounds and their use as insecticides” (Bayer CropScience AG, priority 2004, dated 2010).

Columns and labels:
[1] = tested on: larva of Cnaphalocrocis medinalis Guenee; assay: Test against larva of Cnaphalocrocis medinalis Guenee (sprayed paddy rice foliage); format: in vivo; conditions: 20 ppm concentration of the active component; second instar larvae; counted after 7 days; 25° C.
Procedure: Paddy rice (variety: Tamanishiki) planted in a pot was treated by spraying 50 ml per pot of the diluted aqueous solution of the prescribed concentration of the active compound prepared in the same manner as in the above-mentioned Biological Test Example 1. After the treated rice plant was dried in the air, their foliage part was cut in 4-5 cm length, which were put in a dish with 9 cm diameter with a sheet of filter paper and 2 ml of water. Five larvae of Cnaphalocrocis medinalis Guenee at the second instar were put in the dish that was placed in a room at the constant temperature of 25° C. After 2 and 4 days, each rest (each ⅓ amount) of foliage parts of rice plant were cut in the same manner and added to the dish. After 7 days the number of dead larvae was counted and the rate of death was calculated. In this test the results of 2 dishes at 1 section were averaged.

[2] = tested on: larva of Spodoptera litura; assay: Test against larva of Spodoptera litura (leaf dip, sweet potato leaves); format: in vivo; conditions: 20 ppm concentration of the active component; third instar larvae; counted after 7 days; 25° C.
Procedure: Preparation of Test Solution:
In order to make an appropriate formulation of an active compound, 1 part by weight of the active compound was mixed with the above-mentioned amount of solvent containing the above-mentioned amount of emulsifier and the mixture was diluted with water to a prescribed concentration.
Leaves of sweet potato were soaked in the test solution diluted to a prescribed concentration with water, dried in the air and put in a dish of 9 cm diameter.
10 larvae of Spodoptera litura at the third instar were placed on the leaves and kept in a room at the constant temperature of 25° C. After 2 and 4 days further leaves of sweet potato were added and after 7 days the number of dead larvae was counted and the rate of death was calculated.
In this test the results of 2 dishes at 1 section were averaged.

| Structure (SMILES) | controlling effect, rate of death [1] [%] | controlling effect, rate of death [2] [%] |
| --- | --- | --- |
| Cc1cc(Cn2nc(C(F)(F)C(F)(F)F)nc2C(F)(F)F)ccc1NC(=O)c1cccc(Cl)c1C(=O)NC(C)(C)C[S+](C)[O-] (stereo not drawn) [compound 150] | 100 | 100 |
| CSCC(C)NC(=O)c1c(Cl)cccc1C(=O)Nc1ccc(Cn2nc(C(F)(F)C(F)(F)F)nc2C(F)(F)F)cc1C (stereo not drawn) [compound 153] | 100 | 100 |
| Cc1cc(Cn2nc(C(F)(F)C(F)(F)F)nc2C(F)(F)F)ccc1NC(=O)c1cccc(Cl)c1C(=O)NC(C)C[S+](C)[O-] (stereo not drawn) [compound 155] | 100 | 100 |
| Cc1cc(Cn2nc(C(F)(F)C(F)(F)F)nc2C(F)(F)F)ccc1NC(=O)c1cccc(Cl)c1C(=O)NC(C)CS(C)(=O)=O (stereo not drawn) [compound 157] | 100 | 100 |
| CSCC(C)NC(=O)c1c(Br)cccc1C(=O)Nc1ccc(Cn2nc(C(F)(F)F)nc2C(F)(F)F)cc1C (stereo not drawn) [compound 177] | 100 | 100 |
| Cc1cc(Cn2nc(C(F)(F)F)nc2C(F)(F)F)ccc1NC(=O)c1cccc(Br)c1C(=O)NC(C)CS(C)(=O)=O (stereo not drawn) [compound 182] | 100 | 100 |
| Cc1cc(Cn2nc(C(F)(F)F)nc2C(F)(F)F)ccc1NC(=O)c1cccc(I)c1C(=O)NC(C)C [compound 210] | 100 | 100 |
| Cc1cc(Cn2nc(C(F)(F)F)nc2C(F)(F)F)ccc1NC(=O)c1cccc(I)c1C(=O)NC(C)(C)C[S+](C)[O-] (stereo not drawn) [compound 212] | 100 | 100 |
| Cc1cc(Cn2nc(C(F)(F)F)nc2C(F)(F)F)ccc1NC(=O)c1cccc(I)c1C(=O)NC(C)C[S+](C)[O-] (stereo not drawn) [compound 216] | 100 | 100 |
| Cc1cc(Cn2nc(C(F)(F)F)nc2C(F)(F)F)ccc1NC(=O)c1cccc(I)c1C(=O)NC(C)C[S+](C)[O-] (stereo not drawn) [compound 217] | 100 | 100 |
| Cc1cc(Cn2nc(C(F)(F)F)nc2C(F)(F)F)ccc1NC(=O)c1cccc(I)c1C(=O)NC(C)CS(C)(=O)=O (stereo not drawn) [compound 219] | 100 | 100 |
| CC[S+]([O-])CC(C)NC(=O)c1c(I)cccc1C(=O)Nc1ccc(Cn2nc(C(F)(F)F)nc2C(F)(F)F)cc1C (stereo not drawn) [compound 221] | 100 | 100 |
| CSCC(C)NC(=O)c1c(I)cccc1C(=O)Nc1ccc(Cn2nc(C(F)(F)C(F)(F)F)nc2C(F)(F)F)cc1C (stereo not drawn) [compound 227] | 100 | 100 |
| Cc1cc(Cn2nc(C(F)(F)C(F)(F)F)nc2C(F)(F)F)ccc1NC(=O)c1cccc(I)c1C(=O)NC(C)C[S+](C)[O-] (stereo not drawn) [compound 229] | 100 | 100 |
| Cc1cc(Cn2nc(C(F)(F)C(F)(F)F)nc2C(F)(F)F)ccc1NC(=O)c1cccc(I)c1C(=O)NC(C)CS(C)(=O)=O (stereo not drawn) [compound 230] | 100 | 100 |
| Cc1cc(Cn2nc(C(F)(F)C(F)(F)F)nc2C(F)(F)F)ccc1NC(=O)c1cccc(I)c1C(=O)NC(C)CS(C)(=O)=O (stereo not drawn) [compound 231] | 100 | 100 |
| CSCC(C)NC(=O)c1c(I)cccc1C(=O)Nc1ccc(Cn2nc(C(F)(F)F)nc2C(F)F)cc1C (stereo not drawn) [compound 238] | 100 | 100 |
| Cc1cc(Cn2nc(C(F)(F)F)nc2C(F)F)ccc1NC(=O)c1cccc(I)c1C(=O)NC(C)CS(C)(=O)=O (stereo not drawn) [compound 242] | 100 | 100 |
| CSCC(C)NC(=O)c1c(OS(C)(=O)=O)cccc1C(=O)Nc1ccc(Cn2nc(C(F)(F)F)nc2C(F)(F)F)cc1C (stereo not drawn) [compound 251] | 100 | 100 |
| Cc1cc(Cn2nc(C(F)(F)F)nc2C(F)(F)F)ccc1NC(=O)c1cccc(OS(C)(=O)=O)c1C(=O)NC(C)C[S+](C)[O-] (stereo not drawn) [compound 253] | 100 | 100 |
| CSCC(C)NC(=O)c1c(I)cccc1C(=O)Nc1ccc(Cc2c(C(F)(F)F)nn(C(F)F)c2OC(F)F)cc1C (stereo not drawn) [compound 262] | 100 | 100 |

| Structure (SMILES) | controlling effect, rate of death [1] [%] | controlling effect, rate of death [2] [%] |
| --- | --- | --- |
| Cc1cc(Cc2c(C(F)(F)F)nn(C(F)F)c2OC(F)F)ccc1NC(=O)c1cccc(I)c1C(=O)NC(C)CS(C)(=O)=O (stereo not drawn) [compound 264] | 100 | 100 |
| CSCC(C)NC(=O)c1c(I)cccc1C(=O)Nc1ccc(Cc2c(OC(F)F)nn(C(F)F)c2C(F)(F)F)cc1C (stereo not drawn) [compound 268] | 100 | 100 |
| Cc1cc(Cc2c(OC(F)F)nn(C(F)F)c2C(F)(F)F)ccc1NC(=O)c1cccc(I)c1C(=O)NC(C)CS(C)(=O)=O (stereo not drawn) [compound 270] | 100 | 100 |
| CSCC(C)NC(=O)c1c(I)cccc1C(=O)Nc1ccc(Cn2cc(C(F)(F)F)nc2C(F)(F)F)cc1C (stereo not drawn) [compound 281] | 100 | 100 |
| CSCC(C)NC(=O)c1c(I)cccc1C(=O)Nc1ccc(Cn2c(C(F)(F)F)nnc2C(F)(F)F)cc1C (stereo not drawn) [compound 299] | 100 | 100 |
| CSCC(C)(C)NC(=O)c1c(I)cccc1C(=O)Nc1ccc(Oc2nc(C(F)(F)F)cc(C(F)(F)F)n2)cc1C [compound 308] | 100 | 100 |
| Cc1cc(Oc2nc(C(F)(F)F)cc(C(F)(F)F)n2)ccc1NC(=O)c1cccc(I)c1C(=O)NC(C)(C)CS(C)(=O)=O [compound 310] | 100 | 100 |
| CSCC(C)NC(=O)c1c(Cl)cccc1C(=O)Nc1ccc(-n2nc(C(F)(F)F)cc2C(F)(F)F)cc1C (stereo not drawn) [compound 318] | 100 | 100 |
| Cc1cc(-n2nc(C(F)(F)F)cc2C(F)(F)F)ccc1NC(=O)c1cccc(Cl)c1C(=O)NC(C)CS(C)(=O)=O (stereo not drawn) [compound 322] | 100 | 100 |
| CSCC(C)NC(=O)c1c(I)cccc1C(=O)Nc1ccc(-n2nc(C(F)(F)F)cc2C(F)(F)F)cc1C (stereo not drawn) [compound 413] | 100 | 100 |
| CSCC(C)NC(=O)c1c(I)cccc1C(=O)Nc1ccc(-n2nc(C(F)(F)F)cc2C(F)(F)F)cc1C (stereo not drawn) [compound 414] | 100 | 100 |
| Cc1cc(-n2nc(C(F)(F)F)cc2C(F)(F)F)ccc1NC(=O)c1cccc(I)c1C(=O)NC(C)CS(C)(=O)=O (stereo not drawn) [compound 417] | 100 | 100 |
| CSCC(C)(C)NC(=O)c1c(I)cccc1C(=O)Nc1ccc(-n2nccc2C(F)(F)C(F)(F)F)cc1C [compound 422] | 100 | 100 |
| CSCC(C)(C)NC(=O)c1c(I)cccc1C(=O)Nc1ccc(-n2ccc(C(F)(F)C(F)(F)F)n2)cc1C [compound 434] | 100 | 100 |
| Cc1cc(-n2cc(C(F)(F)C(F)(F)F)cn2)ccc1NC(=O)c1cccc(I)c1C(=O)NC(C)(C)CS(C)(=O)=O [compound 448] | 100 | 100 |
| CSCC(C)NC(=O)c1c(I)cccc1C(=O)Nc1ccc(-n2nc(C(F)(F)C(F)(F)F)cc2C(F)(F)F)cc1C (stereo not drawn) [compound 473] | 100 | 100 |
| Cc1cc(-n2nc(C(F)(F)C(F)(F)F)cc2C(F)(F)F)ccc1NC(=O)c1cccc(I)c1C(=O)NC(C)CS(C)(=O)=O (stereo not drawn) [compound 475] | 100 | 100 |
| CSC[C@H](C)NC(=O)c1c(OS(C)(=O)=O)cccc1C(=O)Nc1ccc(-n2nc(C(F)(F)F)cc2C(F)(F)F)cc1C [compound 492] | 100 | 100 |
| CSCC(C)NC(=O)c1c(I)cccc1C(=O)Nc1ccc(-c2cc(C(F)(F)F)nn2CC(F)(F)F)cc1C (stereo not drawn) [compound 506] | 100 | 100 |
| Cc1cc(-c2cc(C(F)(F)F)nn2CC(F)(F)F)ccc1NC(=O)c1cccc(I)c1C(=O)NC(C)CS(C)(=O)=O (stereo not drawn) [compound 508] | 100 | 100 |
| CSCC(C)NC(=O)c1c(I)cccc1C(=O)Nc1ccc(-c2cc(C(F)(F)F)nn2C(F)F)cc1C (stereo not drawn) [compound 512] | 100 | 100 |
